The subject of test [1] is H3255. Put plainly: Effect on cell apoptosis (Western Blot, PARP and Caspase 3 cleavage), H3255. The class given is cell-based. The note with it: H3255 (EGFR L858R), 24 hours. An excerpt: (§1) In order to confirm whether the death of cells is through apoptosis or necrosis after administration of drugs, non-small cell lung cancer cell A549 (expressing wild-type EGFR gene), non-small cell lung cancer cell line H1975 (expressing EGFR L858R/T790M double mutant gene), non-small cell lung cancer cell line H3255 (expressing EGFR L858R mutant gene), non-small cell lung cancer cell line H3122 (expressing ALK gene) cell line, and non-small cell lung cancer cell line PC-9 (expressing EGFR delE746_A750 mutant gene) were tested for effect of Compound 1 on cleavage of poly ADP-ribose polymerase PARP which is a DNA repair enzyme and Caspase 3, which were closely related to cell apoptosis. […] Western Blot was used to detect the effect of various concentrations of drugs at various time points on cleavage of poly ADP-ribose polymerase PARP which is a DNA repair enzyme and Caspase 3.

Test [2] relates to PC-9. In words: Effect on cell apoptosis (Western Blot, PARP and Caspase 3 cleavage), PC-9. The class given is cell-based, human. The note with it: PC-9 (EGFR delE746_A750), 24 hours.
Description: as §1

For test [3], the system named is PC-9. Put plainly: Effect on cell cycle (PI staining, flow cytometer), PC-9. The format is cell-based, human. The note with it: PC-9 (EGFR delE746_A750), 24 hours. An excerpt:
(§2) In order to study which growth phase the cell was halted after administration of the drugs, five cell lines including non-small cell lung cancer cell line A549 (expressing wild-type EGFR gene), non-small cell lung cancer cell line H1975 (expressing EGFR L858R/T790M double mutant gene), non-small cell Lung cancer cell line PC-9 (expressing EGFR delE746_A750 mutant gene), non-small cell lung cancer cell line H3255 (expressing EGFR L858R mutant gene) and non-small cell lung cancer cell NCI-H3122 (expressing ALK gene) were tested for effect of Compound 1 on cell cycle distribution. Two cell lines including non-small cell lung cancer cell NCI-H3122 (expressing ALK gene) and non-small cell lung cancer cell H1975 (expressing EGFR L858R/T790M double mutant gene) were tested for effect of Compound 10 on cell cycle distribution. […]
(Flow cytometry measures light scatter and fluorescence of single cells or particles in a stream.)

Test [4] concerns H3255. Put plainly: Effect on cell cycle (PI staining, flow cytometer), H3255. The format is cell-based. The note with it: H3255 (EGFR L858R), 24 hours.
Description: as §2

Test [5] relates to EGFR protein (EGFR L858R, H3255). In words: Effect on signaling pathway in cells, H3255. The note with it: 4 h. The class given is cell-based. From the text: In four cell lines (all purchased from ATCC) including non-small cell lung cancer cell line A549 (expressing wild-type EGFR gene), non-small cell lung cancer cell line H1975 (expressing EGFR L858R/T790M double mutant gene), non-small cell lung cancer cell line H3255 (expressing EGFR L858R mutant gene) and non-small cell lung cancer cell line PC-9 (expressing EGFR delE746_A750 mutant gene), the effect of Compound 1 on EGFR or other protein kinases related to signaling pathways of EGFR such as Stat3, AKT, ErK, eIF4E, 4EBP1, P70S6K was assessed by assaying a number of cellular biochemical and functional endpoints. […] The effect of Compound 1 on phosphorylation of Stat3Y705, AKT T308, AKT 5473, Erk T202/204, EGFR Y1068, P70S6K Thr389, eIF4E Ser209, Erk T202/204, 4EBP1 (Thr37/46) in these cell lines was assayed (FIGS. 1a to 1d).

`C=CC(=O)Nc1cc(Nc2ncc(Cl)c(Nc3ccccc3S(=O)(=O)C(C)C)n2)c(OC)cc1N1CCN(CC)CC1` [Compound 1, N-(5-(5-chloro-4-(2-(isopropylsulfonyl)phenylamino)pyrimidin-2-ylamino)-2-(4-ethylpiperazin-1-yl)-4-methoxyphenyl)acrylamide]: the results for the “concentration at which evident cleavage of PARP and Caspase 3 could be observed” value in the test on H3255 [1] and with PC-9 [2] were 0.03 µM and 0.3 µM, respectively. Also, the “effect on cell cycle distribution” value in the test with PC-9 [3] and with H3255 [4] was “halt the cells in G0-G1 phase” in each case. Further, the “concentration able to significantly inhibit the phosphorylation of EGFR protein (also affects AKT and ERK phosphorylation)” value in test [5] was determined as 0.3 µM.

These data come from US10350210B2, “EGFR and ALK dual inhibitor” (PRECEDO PHARMACEUTICALS CO., LTD, priority 2015, dated 2019).
